Assay results published in patent publication US4515708A, “Corrosion inhibitors” (Exxon Research & Engineering Co., priority 1982, dated 1985).

Experiment: Solubility Test (35 wt% solution in isopropylalcohol shaken with water, brine or heptane)
Type: physicochemical
Conditions: not given
Protocol: The active material under test was made up into a 35 wt% solution in isopropylalcohol (IPA). 0.3 ml of this solution was shaken with 10 ml of each of the liquids in which solubility is to be tested: water, 5 wt% NaCl solution (brine) and heptane. The mixture was observed after 30 minutes and 24 hours.

Row | Compound | SOLUBILITY IN: Brine | SOLUBILITY IN: Heptane | SOLUBILITY IN: Water
1 | CCCCCCNCCc1ccccn1 [Example 1] | S | S | S
2 | CCCCCCNCCc1ccncc1 [Example 22] | S | S | S

Same assay, conditions: 0.3 ml of 35 wt% IPA solution in 10 ml 5 wt% NaCl solution; 30 minutes and 24 hours

Row | Compound | SOLUBILITY IN: Brine
3 | NCCNCCNCCc1ccccn1 [Example 15] | S
4 | NCCNCCNCCc1ccncc1 [Example 34] | S
5 | NCCNCCNCCNCCc1ccncc1 [Example 35] | S

Same assay, conditions: 0.3 ml of 35 wt% IPA solution in 10 ml water; observed after 30 minutes and 24 hours

Row | Compound | SOLUBILITY IN: Water
6 | NCCNCCNCCc1ccccn1 [Example 15] | S
7 | NCCNCCNCCc1ccncc1 [Example 34] | S
8 | NCCNCCNCCNCCc1ccncc1 [Example 35] | S

Experiment: Emulsion Test (3 wt% brine / heptane)
Type: physicochemical
Conditions: 1 ml of 35 wt% IPA solution, 50 ml 3 wt% brine, 50 ml heptane
Protocol: 1 ml of the solutions used for Test A was shaken with 50 ml of 3 wt% brine and 50 ml of heptane for 1 minute in a 150 ml bottle. The emulsion was observed, and the time noted for the emulsion to break and form a clean interface with clear liquid layers. If at 30 minutes this had not occurred, the appearance was recorded together with the thickness of any persisting emulsion.

Row | Compound | Time to break emulsion
9 | CCCCCCNCCc1ccccn1 [Example 1] | 30 min
10 | NCCNCCNCCc1ccccn1 [Example 15] | 10 min
11 | CCCCCCNCCc1ccncc1 [Example 22] | 1 min
12 | NCCNCCNCCc1ccncc1 [Example 34] | 1 min
13 | NCCNCCNCCNCCc1ccncc1 [Example 35] | 1 min

Same assay, conditions: hydrocarbon layer; 50 ml 3 wt% brine/50 ml heptane

Row | Compound | Appearance after 30 mins, hydrocarbon
14 | CCCCCCNCCc1ccccn1 [Example 1] | clear
15 | NCCNCCNCCc1ccccn1 [Example 15] | clear
16 | CCCCCCNCCc1ccncc1 [Example 22] | clear
17 | NCCNCCNCCc1ccncc1 [Example 34] | clear
18 | NCCNCCNCCNCCc1ccncc1 [Example 35] | clear

Same assay, conditions: water layer; 50 ml 3 wt% brine/50 ml heptane

Row | Compound | Appearance after 30 mins, water
19 | CCCCCCNCCc1ccccn1 [Example 1] | clear
20 | NCCNCCNCCc1ccccn1 [Example 15] | clear
21 | CCCCCCNCCc1ccncc1 [Example 22] | clear
22 | NCCNCCNCCc1ccncc1 [Example 34] | clear
23 | NCCNCCNCCNCCc1ccncc1 [Example 35] | clear

Experiment: Corrosion Test 1 (dynamic wheel test; 3 wt% brine/Mentor 28; CO2 + H2S)
Conditions: 2 ppm; 24 h, 70° C.; 30% solution
Protocol: (§1) For each compound three mild steel coupons (approximately 100 mm×12 mm×1.5 mm) were tested at each concentration. Each was contacted in a 250 ml bottle with 200 ml of a test fluid either saturated with a carbon dioxide at 20° C. or containing 100 ppm hydrogen sulphide or having both CO2 and H2 S present in those amounts. The test fluid was treated with a 30% aqueous solution of the compound under test at 2, 10, 50 and 250 ppm except where indicated to the contrary. The coupon was subjected to a dynamic wheel test in which the bottle was mounted radially on the periphery of 650 mm diameter wheel which was rotated at about 40 rpm for 24 hours at 70° C. The weight loss was obtained, and also measured in a control experiment where no inhibitor was present. From this the % protection was calculated as % reduction in weight loss.
Test fluid: 100 ml 3 wt% brine/100 ml Mentor 28 (Mentor®28 is a depolarised kerosene available from Exxon Chemical Company)
(§2) Corrosives: Saturated CO2 +100 ppm H2 S

Row | Compound | % Protection
24 | CCCCCCNCCc1ccccn1 [Example 1] | 15%
25 | NCCNCCNCCc1ccccn1 [Example 15] | 32%
26 | CCCCCCNCCc1ccncc1 [Example 22] | 41%
27 | NCCNCCNCCc1ccncc1 [Example 34] | 22%

Same assay, conditions: 10 ppm; 24 h, 70° C.; 30% solution

Row | Compound | % Protection
28 | CCCCCCNCCc1ccccn1 [Example 1] | 73%
29 | NCCNCCNCCc1ccccn1 [Example 15] | 72%
30 | CCCCCCNCCc1ccncc1 [Example 22] | 67%
31 | NCCNCCNCCc1ccncc1 [Example 34] | 50%

Same assay, conditions: 50 ppm; 24 h, 70° C.; 30% solution

Row | Compound | % Protection
32 | CCCCCCNCCc1ccccn1 [Example 1] | 79%
33 | NCCNCCNCCc1ccccn1 [Example 15] | 80%
34 | CCCCCCNCCc1ccncc1 [Example 22] | 81%
35 | NCCNCCNCCc1ccncc1 [Example 34] | 66%

Same assay, conditions: 250 ppm; 24 h, 70° C.; 30% solution

Row | Compound | % Protection
36 | CCCCCCNCCc1ccccn1 [Example 1] | 91%
37 | NCCNCCNCCc1ccccn1 [Example 15] | 87%
38 | CCCCCCNCCc1ccncc1 [Example 22] | 87%
39 | NCCNCCNCCc1ccncc1 [Example 34] | 80%

Experiment: Corrosion Test 2 (dynamic wheel test; 3 wt% brine; CO2 + H2S)
Conditions: 2 ppm; 24 h, 70° C.
Protocol: as §1
Test Fluid: 200 ml 3 wt% brine
as §2

Row | Compound | % Protection
40 | CCCCCCNCCc1ccccn1 [Example 1] | 13%
41 | NCCNCCNCCc1ccccn1 [Example 15] | 22%
42 | CCCCCCNCCc1ccncc1 [Example 22] | 11%
43 | NCCNCCNCCc1ccncc1 [Example 34] | 18%

Same assay, conditions: 10 ppm; 24 h, 70° C.

Row | Compound | % Protection
44 | CCCCCCNCCc1ccccn1 [Example 1] | 57%
45 | NCCNCCNCCc1ccccn1 [Example 15] | 63%
46 | CCCCCCNCCc1ccncc1 [Example 22] | 9%
47 | NCCNCCNCCc1ccncc1 [Example 34] | 26%

Same assay, conditions: 50 ppm; 24 h, 70° C.

Row | Compound | % Protection
48 | CCCCCCNCCc1ccccn1 [Example 1] | 83%
49 | NCCNCCNCCc1ccccn1 [Example 15] | 81%
50 | CCCCCCNCCc1ccncc1 [Example 22] | 41%
51 | NCCNCCNCCc1ccncc1 [Example 34] | 48%

Same assay, conditions: 250 ppm; 24 h, 70° C.

Row | Compound | % Protection
52 | CCCCCCNCCc1ccccn1 [Example 1] | 93%
53 | NCCNCCNCCc1ccccn1 [Example 15] | 87%
54 | CCCCCCNCCc1ccncc1 [Example 22] | 74%
55 | NCCNCCNCCc1ccncc1 [Example 34] | 69%

Experiment: Corrosion Test 3 (dynamic wheel test; 3 wt% brine + Mentor 28; CO2 only)
Conditions: 2 ppm; 24 h, 70° C.
Protocol: as §1
(§3) Test fluid: 100 ml 3 wt% brine+100 ml Mentor 28
Corrosives: Saturated CO2 only

Row | Compound | % Protection
56 | CCCCCCNCCc1ccncc1 [Example 22] | 9%
57 | NCCNCCNCCc1ccncc1 [Example 34] | 6%

Same assay, conditions: 10 ppm; 24 h, 70° C.

Row | Compound | % Protection
58 | CCCCCCNCCc1ccncc1 [Example 22] | 5%
59 | NCCNCCNCCc1ccncc1 [Example 34] | 11%

Same assay, conditions: 50 ppm; 24 h, 70° C.

Row | Compound | % Protection
60 | CCCCCCNCCc1ccncc1 [Example 22] | 13%
61 | NCCNCCNCCc1ccncc1 [Example 34] | 13%

Same assay, conditions: 250 ppm; 24 h, 70° C.

Row | Compound | % Protection
62 | CCCCCCNCCc1ccncc1 [Example 22] | 7%
63 | NCCNCCNCCc1ccncc1 [Example 34] | 18%

Experiment: Corrosion Test 4 (dynamic wheel test; 3 wt% brine + Mentor 28; H2S)
Conditions: 2 ppm; 24 h, 70° C.
Protocol: as §1, §3
Corrosives: 100 ppm H2 S (prior nitrogen purge)

Row | Compound | % Protection
64 | CCCCCCNCCc1ccccn1 [Example 1] | 0%
65 | CCCCCCNCCc1ccncc1 [Example 22] | 8%
66 | NCCNCCNCCc1ccncc1 [Example 34] | 20%

Same assay, conditions: 10 ppm; 24 h, 70° C.

Row | Compound | % Protection
67 | CCCCCCNCCc1ccccn1 [Example 1] | 22%
68 | CCCCCCNCCc1ccncc1 [Example 22] | 50%
69 | NCCNCCNCCc1ccncc1 [Example 34] | 45%

Same assay, conditions: 50 ppm; 24 h, 70° C.

Row | Compound | % Protection
70 | CCCCCCNCCc1ccccn1 [Example 1] | 55%
71 | CCCCCCNCCc1ccncc1 [Example 22] | 67%
72 | NCCNCCNCCc1ccncc1 [Example 34] | 62%

Same assay, conditions: 250 ppm; 24 h, 70° C.

Row | Compound | % Protection
73 | CCCCCCNCCc1ccccn1 [Example 1] | 55%
74 | CCCCCCNCCc1ccncc1 [Example 22] | 67%
75 | NCCNCCNCCc1ccncc1 [Example 34] | 67%

Experiment: Film persistency corrosion test
Conditions: 500 ppm; CO2 + H2S; 24 h, 70° C.
Protocol: […] A test fluid made up of equal proportions of 3 wt% brine and Mentor 28 was used, saturated with CO2 and containing 100 ppm H2 S as corrosives. Coupons were used as described for the previous corrosion test. A coupon was first immersed in test fluid containing corrosives and the inhibitor under test for 1 hour, then rinsed for 1 hour in a similar test fluid containing no inhibitor and finally transferred to a further test fluid again containing no inhibitor in which the dynamic wheel test was carried out at 70° C. for 24 hours.

Row | Compound | % Protection
76 | CCCCCCNCCc1ccccn1 [Example 1] | 18%
77 | NCCNCCNCCc1ccccn1 [Example 15] | 13%
78 | CCCCCCNCCc1ccncc1 [Example 22] | 19%
79 | NCCNCCNCCNCCc1ccncc1 [Example 35] | 19%

Same assay, conditions: 1000 ppm; CO2 + H2S; 24 h, 70° C.

Row | Compound | % Protection
80 | CCCCCCNCCc1ccccn1 [Example 1] | 25%
81 | NCCNCCNCCc1ccccn1 [Example 15] | 11%
82 | CCCCCCNCCc1ccncc1 [Example 22] | 20%
83 | NCCNCCNCCNCCc1ccncc1 [Example 35] | 18%

Same assay, conditions: 5000 ppm; CO2 + H2S; 24 h, 70° C.

Row | Compound | % Protection
84 | CCCCCCNCCc1ccccn1 [Example 1] | 17%
85 | NCCNCCNCCc1ccccn1 [Example 15] | 17%
86 | CCCCCCNCCc1ccncc1 [Example 22] | 23%
87 | NCCNCCNCCNCCc1ccncc1 [Example 35] | 20%
